US20180008688A1, “METHOD AND COMPOSITIONS FOR ENHANCING IMMUNOTHERAPEUTIC TREATMENT OF A CANCER” (Augusta University Research Institute, Inc., priority 2016, published 2018)

Tests used:
OT-I T cells = OT-I T cells activated with cognate antigen and different antigen-presenting cells, with nutlin; type: cell-based, mouse
From the text: Under normal circumstances the signal to downregulate p53 is provided by engagement of the T cell antigen receptor (TCR) that activates MDM2 and targets p53 for degradation (Watanabe et al., (2014) Immunity 40: 681-691).
To test whether the effect of Ly6c^+CD103^+ dendritic cells was due to IL-12, OT-I T cells were activated using 3 different types of antigen-presenting cells (APCs).
Consistent with this, when dendritic cells were sorted from TDLNs of IL-12-deficient mice (IL-12p40-KO), treated with the same immunotherapy regimen, these dendritic cells were unable to rescue T cells from nutlin. T cell proliferation tracked concordantly with p53 levels. In these experiments with dendritic cells from TDLNs, feeder populations were added to maintain functional activity.

B16F10 tumors = test: Established B16F10 tumors treated with dual checkpoint blockade with or without nutlin-3a; type: in vivo, mouse
Method: In vivo tumor studies: The B16F10 and E.G7 (EL4-OVA) cell lines were obtained from ATCC. B16-OVA (B16F10 transfected with full-length chicken ovalbumin) clone MO4 was according to Falo et al. ((1995) Nat. Med. 1: 649-653). B16F10 cells expressing EGFP protein (B16-GFP cells) were derived using lentiviral transfection. Tumor implantation was performed as described (Sharma et al., (2007) J. Clin. Invest. 117: 2570-2582), using 1×10^5 cells for B16F10 and 1×10^6 cells for other cell lines (large inocula were used to ensure rapid tumor engraftment and immune suppression). Tumors were implanted bilaterally in each mouse as a control for reproducible implantation technique; replicate tumor diameters in a single mouse were typically within ±15%. Tumor volume was calculated from orthogonal diameters using the formula V=L×W^2×π/6. Mice received approved euthanasia when tumors reached a size of 300 mm^2 (product of orthogonal diameters); death was never used a planned endpoint in any study.
Tumor implantation was performed as described (Sharma et al., (2007) J. Clin. Invest. 117: 2570-2582). VO-OHpic was given at 10 mg/kg/day i.p., in 10% DMSO/PBS. Cyclophosphamide was given at 150 mg/kg i.p×1 dose; and oxaliplatin at 5 mg/kg i.p×1 dose. Nutlin-3a was administered daily at 10 mg/kg/day i.p. For checkpoint blockade, mice received anti-CTLA-4 plus a cocktail of antibodies against the PD-1 pathway. […]

[1] = activation with cognate antigen

COc1ccc(C2=NC(c3ccc(Cl)cc3)C(c3ccc(Cl)cc3)N2C(=O)N2CCNC(=O)C2)c(OC(C)C)c1 (single isomer, unassigned; (-)) [nutlin-3a, (−)-4-(4,5-Bis(4-chlorophenyl)-2-(2-isopropoxy-4-methoxyphenyl)-4,5-dihydro-1H-imidazole-1-carbonyl)piperazin-2-one]
down-regulation of p53 in OT-I T cells (OT-I T cells; CD11c+Ly6c+ dendritic cells from TDLNs of VO-OHpic+CTX treated mice as APCs): lost all ability to prevent down-regulation of p53
T cell proliferation (OT-I T cells; [1]): prevented T cell proliferation
total p53 in OT-I T cells (OT-I T cells; [1]): marked increase
down-regulation of p53 in OT-I T cells (OT-I T cells; dendritic cells from normal LNs as APCs): completely prevented
Ly6C+/CD103+ dendritic cells in tumors (B16F10 tumors; nutlin added to checkpoint blockade, after 2 weeks of treatment): maintained large numbers
anti-tumor effect (B16F10 tumors; nutlin-3a 10 mg/kg/day i.p. added to dual checkpoint blockade, FIG. 8A): significantly enhanced and prolonged the effect of treatment
